Columns and labels:
[1] = molecular target: T1, immobilized lactase: Aspergillus oryzae lactase covalently attached (glutaraldehyde) on macroporous amphoteric phenol-formaldehyde ion-exchange resin (Aspergillus oryzae, UniProt Q2UCU3); test: Km and Ki of the immobilized lactase, general characteristics; format: biochemical; conditions: pH 4.5, 30°C, substrate; lactose; value in brackets
T1 construct: the lactase originated from Aspergillus oryzae is immobilized on one of the carriers; host or cells: Aspergillus oryzae (natural producer)
Procedure: The immobilized lactase (0.1 to 0.3 ml) is suspended in a 0.05M acetate buffer solution (pH 4.5). To this solution, a solution of lactose in the same kind of buffer solution as above is added to give a 13.3 w/v % lactose solution. The solution was shaken at 30°C for 15 minutes with a shaker (100 rpm, shaking width; 3.5 cm). After the removal of the immobilized lactase by filtration, the content of the glucose in the filtrate is determined using glucose oxidase, peroxidase and dye system. The amount of the enzyme which produces 1 p mole of glucose in one minute is defined as 1 unit (1 ILU). The pH level and the temperature of the measurement of the activity will be stated in each case in the specification.

[2] = molecular target: T2, lactase obtained from a strain of Aspergillus oryzae (extracellular enzyme, unimmobilized) (Aspergillus oryzae, UniProt Q2UCU3); test: Km and Ki of the unimmobilized lactase, lactose hydrolysis; format: biochemical
T2 construct: the lactase obtained from a strain of Aspergillus oryzae having; host or cells: Aspergillus oryzae (natural producer)
T2 sequence (Q2UCU3 19-1005): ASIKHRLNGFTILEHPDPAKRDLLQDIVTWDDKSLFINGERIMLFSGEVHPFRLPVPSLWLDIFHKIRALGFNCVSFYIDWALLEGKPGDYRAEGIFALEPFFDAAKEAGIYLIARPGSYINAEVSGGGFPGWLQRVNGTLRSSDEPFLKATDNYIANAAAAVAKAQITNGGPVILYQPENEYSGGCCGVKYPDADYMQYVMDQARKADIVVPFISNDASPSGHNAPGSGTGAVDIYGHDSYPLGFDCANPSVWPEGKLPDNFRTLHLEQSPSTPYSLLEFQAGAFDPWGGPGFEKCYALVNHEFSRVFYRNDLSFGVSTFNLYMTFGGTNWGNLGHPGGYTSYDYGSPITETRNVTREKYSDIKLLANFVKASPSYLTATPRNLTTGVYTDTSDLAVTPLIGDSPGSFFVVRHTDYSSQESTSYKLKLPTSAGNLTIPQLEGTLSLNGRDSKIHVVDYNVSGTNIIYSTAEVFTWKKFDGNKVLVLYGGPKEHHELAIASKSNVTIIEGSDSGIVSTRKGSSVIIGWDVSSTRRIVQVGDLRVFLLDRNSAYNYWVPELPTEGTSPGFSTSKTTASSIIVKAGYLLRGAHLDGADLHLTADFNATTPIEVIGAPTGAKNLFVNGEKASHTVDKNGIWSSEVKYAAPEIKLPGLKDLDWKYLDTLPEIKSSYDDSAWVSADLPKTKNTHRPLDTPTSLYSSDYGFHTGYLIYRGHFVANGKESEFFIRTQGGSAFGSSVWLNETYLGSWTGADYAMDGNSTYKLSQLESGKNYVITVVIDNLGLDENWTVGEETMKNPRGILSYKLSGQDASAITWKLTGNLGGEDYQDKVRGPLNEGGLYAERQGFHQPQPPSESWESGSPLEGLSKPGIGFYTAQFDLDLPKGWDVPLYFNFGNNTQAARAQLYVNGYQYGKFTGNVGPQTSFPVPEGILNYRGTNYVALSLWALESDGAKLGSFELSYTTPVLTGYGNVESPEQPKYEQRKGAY
Procedure: Ki=7±4 mole/m^3 (0.007±0.004 molell) (pH 4.5, 30°C, substrate; lactose). It is believed that the characteristics of the lactase are well defined by the above data, and some other properties are given below:
In the present specification, 1 ILU is defined as the amount of lactase which produces 1 µ mole per minute of glucose at pH 4.5 at 30°C when a 13.3 w/v% of lactose solution is used as the substrate. The quantity of glucose thus prepared is defined by using glycose oxidase-peroxidase- dye system. When the measurement of the activity (unit) is carried out at a different pH or temperature, the pH or the temperature will specifically be given in each case.

OC[C@H]1O[C@@H](O[C@H]2[C@H](O)[C@@H](O)C(O)O[C@@H]2CO)[C@H](O)[C@@H](O)[C@H]1O (stereo partly shown) [lactose]
Michaelis constant Km [1]: 0.15±0.1 mole/I | Km value ([2]; lactase dry powder of Example 3 (Shinnihon Kagaku Kogyo Co., 73 ILU/mg)): 0.11 mole/I

OC[C@H]1OC(O)[C@H](O)[C@@H](O)[C@H]1O (stereo partly shown) [galactose]
Inhibition constant by galactose Ki [1]: 0.15 ± 0.1 mol/L | Ki ([2]; read-out: Inhibition constant by galactose Ki, pH 4.5, 30°C, substrate, lactose, value in brackets): 7 ± 4 mM

Reference: patent publication EP0026672B1, “Immobilized lactase and its use in hydrolysing lactose” (SUMITOMO CHEMICAL COMPANY, LIMITED, priority 1979, dated 1981)
